According to paper PMC8348142, “Antimicrobial Peptide Modifications against Clinically Isolated Antibiotic-Resistant Salmonella” (Molecules, 2021):
Ends that are not written are not given here.

Test system: clinical Salmonella isolates
Assay: Antibiofilm: inhibition of initial cell attachment, crystal violet
Assay type: cell-based
Details: 24 h, 30 °C, polystyrene plate, crystal violet OD590
Method: The effect of peptides on biofilm formation was tested according to the method described by Sandasi et al. with slight modifications.
Bacterial suspensions of 5 × 10^5 CFU/mL in MHB were prepared as described above. […] The plates were incubated to grow biofilms for 24 h at 30 °C. The incubations of bacteria without peptide and MHB without bacteria were employed as positive (100%) control and negative (0%) control for biofilm growth, respectively. The assay was carried out twice.
The biofilm biomasses obtained from the antibiofilm assay plates were quantified by the crystal violet (CV) staining method with minor modifications. After incubating the plates to grow the biofilms, the growth medium and free bacterial cells were gently removed from the wells and then rinsed thrice with water. The plates were air-dried and subsequently 60 °C oven-dried for 30 min. Each well was stained with 125 µL of 0.1% CV (Merck, Burlington, MA, USA) solution for 15 min. The solution was removed from the wells and further thrice rinsed with water. The biomass bound CV was dissolved with 125 µL of 95% ethanol (Merck) for 5 min, and was transferred into a flat-bottom PS 96-well plate (Jet Biofil, Guangzhou, China). Absorbance values at 590 nm (OD590) of the dissolved solutions were measured by a microplate reader (Tecan Sunrise, Männedorf, Switzerland). Mean OD590 values were determined and all were subtracted by mean OD590 of MHB (negative control) prior to calculate the inhibition (%) as; ((OD590 (no peptide) − OD590 (peptide))/(OD590 (no peptide)) × 100.

FIRRIARLLRRIF-NH2 [Kn2-5R-NH2]
Inhibition (%) of cell attachment (0.25MBC, isolate 5): 69% | Inhibition (%) of cell attachment (0.25MBC, isolate 7): 73.6% | Inhibition (%) of cell attachment (0.25MBC, isolate 11): 64.3% | Inhibition (%) of cell attachment (0.25MBC, isolate 18): 25% | Inhibition (%) of cell attachment (0.25MBC, isolate 26): 88.2% | Inhibition (%) of cell attachment (0.25MBC, isolate 27): 79.1% | Inhibition (%) of cell attachment (0.25MBC, isolate 55): 73.3% | Inhibition (%) of cell attachment (0.25MBC, isolate 61): 33.3% | Inhibition (%) of cell attachment (0.25MBC, isolate 69): 40% | Inhibition (%) of cell attachment (0.25MBC, isolate 76): 79.1% | Inhibition (%) of cell attachment (0.25MBC, isolate 78): 43.9% | Inhibition (%) of cell attachment (0.25MBC, isolate 107): 78.3% | Inhibition (%) of cell attachment (0.5MBC, isolate 5): 100% | Inhibition (%) of cell attachment (0.5MBC, isolate 7): 93% | Inhibition (%) of cell attachment (0.5MBC, isolate 11): 100% | Inhibition (%) of cell attachment (0.5MBC, isolate 18): 58.3% | Inhibition (%) of cell attachment (0.5MBC, isolate 26): 100% | Inhibition (%) of cell attachment (0.5MBC, isolate 27): 100% | Inhibition (%) of cell attachment (0.5MBC, isolate 55): 84.1% | Inhibition (%) of cell attachment (0.5MBC, isolate 61): 63.2% | Inhibition (%) of cell attachment (0.5MBC, isolate 69): 64.8% | Inhibition (%) of cell attachment (0.5MBC, isolate 76): 100% | Inhibition (%) of cell attachment (0.5MBC, isolate 78): 98.9% | Inhibition (%) of cell attachment (0.5MBC, isolate 107): 100%
